Experimental data published in ChEMBL document CHEMBL1136445, “Inhibitory effects on mitochondrial complex I of semisynthetic mono-tetrahydrofuran acetogenin derivatives” (Bioorg Med Chem Lett, 2003).

Legend:
[1] = Inhibitory activity against NADH/DH oxidoreductase in beef heart mitochondrial complex I.; design: species or system Bos taurus
[2] = target: Mitochondrial complex I; NADH oxidoreductase (Bos taurus, UniProt P25708+P52505); test: Inhibitory activity against NADH oxidase in beef heart mitochondrial complex I.; type: protein-complex assay
Sequence of Mitochondrial complex I; NADH oxidoreductase (P25708 21-464 limits assumed, other chains not shown): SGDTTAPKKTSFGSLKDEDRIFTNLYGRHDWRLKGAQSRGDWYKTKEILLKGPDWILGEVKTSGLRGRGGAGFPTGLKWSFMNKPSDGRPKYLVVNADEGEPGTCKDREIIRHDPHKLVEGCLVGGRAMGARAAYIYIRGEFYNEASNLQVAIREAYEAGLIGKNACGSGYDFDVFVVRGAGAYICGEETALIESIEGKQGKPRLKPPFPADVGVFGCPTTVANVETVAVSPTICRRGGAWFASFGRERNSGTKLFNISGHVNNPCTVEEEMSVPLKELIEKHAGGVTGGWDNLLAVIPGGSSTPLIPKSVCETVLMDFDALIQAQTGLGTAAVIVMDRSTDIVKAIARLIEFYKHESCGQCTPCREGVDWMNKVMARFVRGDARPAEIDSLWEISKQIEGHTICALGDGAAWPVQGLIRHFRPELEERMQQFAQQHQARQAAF

[3] = target: Mitochondrial complex I; NADH oxidoreductase (Bos taurus) (UniProt P25708+P52505); test: Inhibitory potency against NADH oxidase with respect to compound 2c; type: protein-complex assay
Bos taurus = species: Bos taurus; test: Inhibitory potency against NADH/DH oxidoreductase with respect to rotenone

Compound	IC50 [1] [nM]	IC50 [2] [nM]	Relative potency [3]	Relative potency (Bos taurus)
CCCCCCCCCCCC[C@H](O)[C@@H]1CC[C@@H]([C@@H](O)CCCCC(=O)CCCCC[C@@H](O)CC2=C[C@H](C)OC2=O)O1	3.7	0.8	1.1	0.15
CCCCCCCCCCCC[C@H](O)[C@@H]1CC[C@@H]([C@@H](O)CCCC[C@@H](O)CCCCC[C@@H]2CC(CC(C)=O)C(=O)O2)O1 (some centres not stated)	14.6	3.3	4.7	0.64
C=C(C)[C@H]1Cc2c(ccc3c2O[C@@H]2COc4cc(OC)c(OC)cc4[C@@H]2C3=O)O1 [ROTENONE]	28.8	5.1	7.2	1
CCCCCCCCCCCC[C@H](O)[C@@H]1CC[C@@H]([C@@H](O)CCCC[C@@H](O)CCCCC[C@@H](O)CC2=C[C@H](C)OC2=O)O1	26.1	2.3	3.2	0.62
CCCCCCCCCCCC[C@H](O)[C@@H]1CC[C@@H]([C@@H](O)CCCC[C@@H](O)CCCCC[C@@H](O)CC2C[C@H](C)OC2=O)O1 (some centres not stated)	19.9	3.6	5.1	0.7
CCCCCCCCCCCC[C@H](O)[C@@H]1CC[C@@H]([C@@H](O)CCCCC(=O)CCCCC[C@@H]2CC(CC(C)=O)C(=O)O2)O1 (some centres not stated)	1.1	0.7	1	0.13
CCCCCCCCCCCC[C@H](O)[C@@H]1CC[C@@H]([C@@H](O)CCCCC(CCCCC[C@@H](O)CC2=C[C@H](C)OC2=O)NCCc2ccc(OC)c(OCc3ccccc3)c2)O1 (some centres not stated)	> 1200	> 150		
CCCCCCCCCCCC[C@H](O)[C@@H]1CC[C@@H]([C@@H](O)CCCC[C@@H](O)CCCCC[C@@H]2CC(CC(C)O)C(=O)O2)O1 (some centres not stated)	51	5.8	8.2	1.1
CCCCCCCCCCCC[C@H](O)[C@@H]1CC[C@@H]([C@@H](O)CCCC[C@@H](O)CCCCC[C@@H](O)CC2(O)C(=O)O[C@@H](C)C2O)O1 (some centres not stated)	55.2	21.8	31.1	4.27
CCCCCCCCCCCC[C@H](O)[C@@H]1CC[C@@H]([C@@H](O)CCCC/C(CCCCC[C@@H](O)CC2=C[C@H](C)OC2=O)=N\O)O1	10.3	2.7	3.8	0.52
CCCCCCCCCCCC[C@H](O)[C@@H]1CC[C@@H]([C@@H](O)CCCC[C@@H](O)CCCCC[C@@H]2CC(C/C(C)=N/O)C(=O)O2)O1 (some centres not stated)	8.7	1.9	2.7	0.37
